How the values were obtained:
PIM1 = PIM1 (Homo sapiens, UniProt P11309); assay: KinaseGlo Pim1 ATP depletion assay; assay type: biochemical
Outline: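 IC50 is derived from residual ATP measured by KinaseGlo Plus luminescence once about half the ATP was consumed. Final conditions were 20 μM ATP, 40 μM BAD peptide and 2.5 nM kinase in HEPES pH 7.5 buffer with MgCl2, DTT and BSA, plus 2.5% DMSO. Compound and enzyme were premixed 15 min before ATP addition.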

PIM2 = PIM2 (Homo sapiens, UniProt Q9P1W9); assay: KinaseGlo Pim2 ATP depletion assay; assay type: biochemical
Outline: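 Compound sat 15 min with enzyme and BAD peptide before ATP was added; final levels 5 nM PIM2, 10 μM peptide, 4 μM ATP, 2.5% DMSO, pH 7.5 HEPES buffer with MgCl2, DTT, BSA. Stopped near 50% ATP consumption; remaining ATP measured by luciferase luminescence.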

PIM3 = PIM3 (Homo sapiens, UniProt Q86V86); assay: KinaseGlo Pim3 ATP depletion assay; assay type: biochemical
Outline: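 Residual ATP was detected by luciferase luminescence once about half had been consumed. The reaction contained 5 nM enzyme, 100 μM BAD peptide (RSRHSSYPAGT) and 40 μM ATP in 50 mM HEPES pH 7.5, 5 mM MgCl2, 1 mM DTT and 0.05% BSA with 2.5% DMSO. Compound and enzyme/peptide were premixed 15 min before ATP.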

GSK3β = GSK3β (Homo sapiens, UniProt P49841); assay: GSK3β ATP depletion assay; assay type: biochemical; settings: read-out: GSK3b IC50
Outline: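 Kinase activity is read as ATP consumption: luciferase luminescence reports the ATP remaining once roughly half of the 2 μM ATP is used. Reaction mix: 5 nM GSK3β, 10 μM b-CREB peptide, 50 mM Tris pH 7.5, 15 mM MgCl2, 1 mM DTT, 0.1% BSA, 2.5% DMSO. Enzyme and peptide are preincubated 15 min before ATP is added.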

[1] = tested on: KMS11 (human myeloma cell line); assay: Cell proliferation assay (CellTiter-Glo), KMS11; assay type: cell-based; settings: KMS11-Luc cells
Outline: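 EC50 derived from CellTiter-Glo luminescence after 3-day exposure at 37° C. Compound was diluted to 2× in medium and added to an equal volume of cells. KMS11 myeloma cells were plated on assay day at 2000/well in IMDM with 10% FBS and sodium pyruvate.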

hERG = molecular target: T1, hERG (Homo sapiens, UniProt Q12809); assay: hERG binding assay ([3H] dofetilide displacement); settings: dofetilide displacement; read-out: HERGdof IC50
T1 construct: host or cells: crude membrane suspension
Method: Compounds of the invention were pipetted into each well of pre-wet 96-well Millipore GF/C filter plates (#MSFCN6B50): 119 μl assay buffer, 1 μl test compound in 100% DMSO (or 100% DMSO only for total binding), 40 μl [3H] dofetilide (12.5 nM, final concentration 2.5 nM; Novartis radioisotope laboratory, East Hanover, N.J., USA, specific activity 15-45 Ci/mmol); 40 μl crude membrane suspension (ca. 15 μg protein). The final concentration of DMSO during the incubation was 0.5%. Incubations were performed at room temperature for 90 min. Non-specific binding (NSB) was defined as the binding remaining in the presence of 25 μM terfenadine (Sigma T9652). The incubations were terminated by rapid filtration on a Millipore filtration manifold, followed by three washes of 200 μA ice-cold assay buffer. The plates were left to dry overnight before adding 40 μA scintillant (MicroScint-20). The plates were then sealed (Sealing Tape SI, Nunc 236366) and read in a Wallac MicroBeta Trilux beta-counter for 1.5 min per well. Compounds were tested as 9-concentration response curves in duplicate, ranging from 30 μM to 3 nM in 1:3 dilution steps. Dilution curves were prepared in 100% DMSO. The reference compound (terfenadine) was tested as an eight-concentration response curve, ranging from 10 μM to 0.6 nM in 1:4 dilution steps.

Chain of PIM2 (Q9P1W9 whole entry): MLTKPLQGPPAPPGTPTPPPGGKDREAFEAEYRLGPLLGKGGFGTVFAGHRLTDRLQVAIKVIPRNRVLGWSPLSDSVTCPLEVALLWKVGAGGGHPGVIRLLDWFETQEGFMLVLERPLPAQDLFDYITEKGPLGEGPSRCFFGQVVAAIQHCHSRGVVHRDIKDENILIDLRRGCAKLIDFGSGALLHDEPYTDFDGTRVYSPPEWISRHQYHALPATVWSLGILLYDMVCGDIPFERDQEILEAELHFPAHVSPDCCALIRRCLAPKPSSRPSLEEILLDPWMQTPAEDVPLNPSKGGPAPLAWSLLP
Chain of PIM1 (P11309 whole entry): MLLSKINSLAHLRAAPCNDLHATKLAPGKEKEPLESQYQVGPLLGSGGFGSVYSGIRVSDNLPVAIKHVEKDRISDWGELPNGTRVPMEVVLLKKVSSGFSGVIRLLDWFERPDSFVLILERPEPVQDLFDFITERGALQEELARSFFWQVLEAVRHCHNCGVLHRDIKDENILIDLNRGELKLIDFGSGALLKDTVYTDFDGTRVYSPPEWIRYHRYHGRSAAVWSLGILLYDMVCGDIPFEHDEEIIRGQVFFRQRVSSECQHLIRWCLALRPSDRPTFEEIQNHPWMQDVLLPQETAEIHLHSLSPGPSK
T1 sequence (Q12809 whole entry): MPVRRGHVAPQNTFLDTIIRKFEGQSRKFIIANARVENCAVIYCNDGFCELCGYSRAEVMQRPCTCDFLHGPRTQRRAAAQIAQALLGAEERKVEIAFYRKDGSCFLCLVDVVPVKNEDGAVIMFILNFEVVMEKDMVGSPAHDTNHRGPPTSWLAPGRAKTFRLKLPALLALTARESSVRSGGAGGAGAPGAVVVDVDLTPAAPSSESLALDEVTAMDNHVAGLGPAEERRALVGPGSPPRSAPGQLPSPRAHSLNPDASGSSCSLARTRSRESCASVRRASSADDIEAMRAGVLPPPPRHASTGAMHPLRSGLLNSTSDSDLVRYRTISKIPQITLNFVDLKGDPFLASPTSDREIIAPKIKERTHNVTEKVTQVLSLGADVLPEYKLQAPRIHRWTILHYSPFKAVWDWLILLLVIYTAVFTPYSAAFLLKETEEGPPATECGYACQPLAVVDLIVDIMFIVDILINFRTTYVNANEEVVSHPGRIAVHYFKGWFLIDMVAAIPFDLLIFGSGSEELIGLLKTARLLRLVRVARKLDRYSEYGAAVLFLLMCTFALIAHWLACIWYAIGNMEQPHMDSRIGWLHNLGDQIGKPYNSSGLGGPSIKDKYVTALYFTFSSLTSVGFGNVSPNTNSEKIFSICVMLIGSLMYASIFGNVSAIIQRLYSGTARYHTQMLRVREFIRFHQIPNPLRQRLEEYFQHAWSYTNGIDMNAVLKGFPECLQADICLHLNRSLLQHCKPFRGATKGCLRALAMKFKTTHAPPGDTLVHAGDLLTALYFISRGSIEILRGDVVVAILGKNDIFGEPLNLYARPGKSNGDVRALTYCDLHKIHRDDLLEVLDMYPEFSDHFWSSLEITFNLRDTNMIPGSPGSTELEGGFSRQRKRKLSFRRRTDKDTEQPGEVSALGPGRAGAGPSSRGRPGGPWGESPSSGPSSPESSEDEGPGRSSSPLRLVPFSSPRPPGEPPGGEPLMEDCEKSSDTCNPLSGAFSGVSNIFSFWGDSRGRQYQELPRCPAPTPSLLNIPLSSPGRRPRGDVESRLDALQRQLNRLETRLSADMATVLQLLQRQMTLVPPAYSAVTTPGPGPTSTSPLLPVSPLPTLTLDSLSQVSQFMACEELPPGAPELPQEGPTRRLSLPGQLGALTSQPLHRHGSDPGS
Chain of GSK3β (P49841 whole entry, species assumed): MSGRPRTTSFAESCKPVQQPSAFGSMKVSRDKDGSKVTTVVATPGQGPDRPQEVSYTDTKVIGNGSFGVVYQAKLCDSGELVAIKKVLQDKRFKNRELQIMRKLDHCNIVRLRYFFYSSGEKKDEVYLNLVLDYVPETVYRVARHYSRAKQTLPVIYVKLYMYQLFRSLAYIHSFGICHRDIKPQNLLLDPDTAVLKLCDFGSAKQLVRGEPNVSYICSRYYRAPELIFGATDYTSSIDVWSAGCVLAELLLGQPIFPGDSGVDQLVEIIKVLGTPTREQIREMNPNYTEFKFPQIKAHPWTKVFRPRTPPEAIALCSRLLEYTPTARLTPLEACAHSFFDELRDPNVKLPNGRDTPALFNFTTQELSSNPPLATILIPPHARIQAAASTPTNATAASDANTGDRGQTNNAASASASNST

CC[C@]1(O)[C@H](O)C[C@H](c2ccncc2NC(=O)c2nc(-c3c(F)cccc3F)ncc2N)O[C@@H]1C [Example 16, 5-amino-2-(2,6-difluorophenyl)-N-(4-((2R,4R,5S,6R)-5-ethyl-4,5-dihydroxy-6-methyltetrahydro-2H-pyran-2-yl)pyridin-3-yl)pyrimidine-4-carboxamide]
IC50 (PIM1): 1 nM
IC50 (PIM2): 3 nM
IC50 (PIM3): 2 nM
IC50 (GSK3β): 101 nM
EC50 [1]: 1940 nM
IC50 (hERG): > 30000 nM

C[C@@H]1O[C@H](c2ccncc2NC(=O)c2ccc(F)c(-c3c(F)cccc3F)n2)C[C@H](O)[C@@]1(C)O (stereo in doubt) [Example 112, 6-(2,6-difluorophenyl)-N-(4-((2S,4S,5R,6S)-4,5-dihydroxy-5,6-dimethyltetrahydro-2H-pyran-2-yl)pyridin-3-yl)-5-fluoropicolinamide]
IC50 (PIM1): 1 nM
IC50 (PIM2): 3 nM
IC50 (PIM3): 2 nM
IC50 (GSK3β): 163 nM
EC50 ([1]; Homo sapiens, KMS-11): 1200 nM
IC50 (hERG): > 30000 nM

CC1C(c2ccncc2NC(=O)c2ccc(F)c(-c3c(F)cccc3F)n2)OC(C)[C@H](O)C1O (stereo in doubt) [Example 65, 6-(2,6-difluorophenyl)-N-(4-((2R,3S,4R,5R,6R)-4,5-dihydroxy-3,6-dimethyltetrahydro-2H-pyran-2-yl)pyridin-3-yl)-5-fluoropicolinamide]
IC50 (PIM1): 1 nM
IC50 (PIM2): 46 nM
IC50 (PIM3): 3 nM
IC50 (GSK3β): 51 nM
EC50 ([1]; Homo sapiens, KMS-11): 8300 nM
IC50 (hERG): > 30000 nM

CC1C(c2ccncc2NC(=O)c2ccc(F)c(-c3c(F)cccc3F)n2)OC(C)[C@@H](O)C1O (stereo in doubt) [Example 64, 6-(2,6-difluorophenyl)-N-(4-((2S,3R,4S,5S,6S)-4,5-dihydroxy-3,6-dimethyltetrahydro-2H-pyran-2-yl)pyridin-3-yl)-5-fluoropicolinamide]
IC50 (PIM1): 1 nM
IC50 (PIM2): 16 nM
IC50 (PIM3): 2 nM
IC50 (GSK3β): 549 nM
EC50 ([1]; Homo sapiens, KMS-11): 800 nM
IC50 (hERG): > 30000 nM

C[C@H]1C[C@@H](O)C[C@@H](c2ccncc2NC(=O)c2ccc(F)c(-c3c(F)cccc3F)n2)O1 (stereo in doubt) [Example 128, 6-(2,6-difluorophenyl)-5-fluoro-N-(4-((2S,4R,6S)-4-hydroxy-6-methyltetrahydro-2H-pyran-2-yl)pyridin-3-yl)picolinamide]
IC50 (PIM1): 1 nM
IC50 (PIM2): 28 nM
IC50 (PIM3): 6 nM
IC50 (GSK3β): 276 nM
EC50 ([1]; Homo sapiens, KMS-11): 9100 nM
IC50 (hERG): > 30000 nM

O=C(Nc1cnccc1[C@H]1C[C@@H](O)[C@H](O)[C@@H](CCl)O1)c1ccc(F)c(-c2c(F)cccc2F)n1 [Example 56, N-(4-((2R,4R,5S,6S)-6-(chloromethyl)-4,5-dihydroxytetrahydro-2H-pyran-2-yl)pyridin-3-yl)-6-(2,6-difluorophenyl)-5-fluoropicolinamide]
IC50 (PIM1): 1 nM
IC50 (PIM2): 3 nM
IC50 (PIM3): 2 nM
IC50 (GSK3β): 73 nM
EC50 ([1]; Homo sapiens, KMS-11): 8300 nM
IC50 (hERG): > 30000 nM

C[C@@H]1C[C@H](N)C[C@H](c2ccncc2NC(=O)c2csc(-c3c(F)cccc3F)n2)O1 [Example 121, N-(4-((2R,4S,6R)-4-amino-6-methyltetrahydro-2H-pyran-2-yl)pyridin-3-yl)-2-(2,6-difluorophenyl)thiazole-4-carboxamide]
IC50 (PIM1): 9 nM
IC50 (PIM2): 795 nM
IC50 (PIM3): 44 nM
IC50 (GSK3β): 3230 nM
EC50 ([1]; Homo sapiens, KMS-11): 4700 nM
IC50 (hERG): 10000 nM

CC(C)NC(=O)c1ccc(F)c(-c2ccc(N)c(C(=O)Nc3cnccc3[C@H]3C[C@@H](O)[C@](C)(O)[C@@H](C)O3)n2)c1 [Example 104, 3-amino-N-(4-((2R,4R,5S,6R)-4,5-dihydroxy-5,6-dimethyltetrahydro-2H-pyran-2-yl)pyridin-3-yl)-6-(2-fluoro-5-(isopropylcarbamoyl)phenyl)picolinamide]
IC50 (PIM1): 2 nM
IC50 (PIM2): 3 nM
IC50 (PIM3): 2 nM
IC50 (GSK3β): 979 nM
EC50 ([1]; Homo sapiens, KMS-11): 2300 nM
IC50 (hERG): > 30000 nM

CC[C@@]1(O)[C@H](O)C[C@H](c2ccncc2NC(=O)c2ccc(F)c(-c3c(F)cccc3F)n2)O[C@@H]1C [Example 74, 6-(2,6-difluorophenyl)-N-(4-((2R,4R,5R,6R)-5-ethyl-4,5-dihydroxy-6-methyltetrahydro-2H-pyran-2-yl)pyridin-3-yl)-5-fluoropicolinamide]
IC50 (PIM1): 1 nM
IC50 (PIM2): 11 nM
IC50 (PIM3): 5 nM
IC50 (GSK3β): 316 nM
EC50 ([1]; Homo sapiens, KMS-11): 3600 nM
IC50 (hERG): > 30000 nM

CC[C@]1(O)[C@H](C)O[C@H](c2ccncc2NC(=O)c2ccc(F)c(-c3c(F)cccc3F)n2)C[C@@H]1O (stereo in doubt) [Example 76, 6-(2,6-difluorophenyl)-N-(4-((2S,4S,5R,6S)-5-ethyl-4,5-dihydroxy-6-methyltetrahydro-2H-pyran-2-yl)pyridin-3-yl)-5-fluoropicolinamide]
IC50 (PIM1): 1 nM
IC50 (PIM2): 2 nM
IC50 (PIM3): 1 nM
IC50 (GSK3β): 100 nM
EC50 ([1]; Homo sapiens, KMS-11): 200 nM
IC50 (hERG): > 30000 nM

C[C@@H]1C[C@H](N)C[C@H](c2ccncc2NC(=O)c2ccc(F)c(-c3c(F)cccc3F)n2)O1 [Example 122, N-(4-((2R,4S,6R)-4-amino-6-methyltetrahydro-2H-pyran-2-yl)pyridin-3-yl)-6-(2,6-difluorophenyl)-5-fluoropicolinamide]
IC50 (PIM1): 2 nM
IC50 (PIM2): 45 nM
IC50 (PIM3): 10 nM
IC50 (GSK3β): 12300 nM
EC50 ([1]; Homo sapiens, KMS-11): 4700 nM
IC50 (hERG): 2000 nM

— patent US20130109682A1, “CYCLIC ETHER COMPOUNDS USEFUL AS KINASE INHIBITORS” (NOVARTIS AG, priority 2010, published 2013)
